Results as given in US12110288B2, “MASP-2 inhibitors and methods of use” (Omeros Corporation, priority 2019, dated 2024).
Counter-ions that a name gives are not always drawn.

What follows are compounds tested against T1, MASP-2 (CCP1-CCP2-SP) (Homo sapiens, UniProt O00187) (assay: Enzymatic Assay for MASP-2). Conditions: fluorogenic substrate based on C2 cleavage site, room temperature, 20 mM HEPES pH 7.4.
T1 construct: 15 μL of Enzyme MASP-2 (CCP1-CCP2-SP) in Assay Buffer
T1 sequence (O00187 445-686 limits assumed): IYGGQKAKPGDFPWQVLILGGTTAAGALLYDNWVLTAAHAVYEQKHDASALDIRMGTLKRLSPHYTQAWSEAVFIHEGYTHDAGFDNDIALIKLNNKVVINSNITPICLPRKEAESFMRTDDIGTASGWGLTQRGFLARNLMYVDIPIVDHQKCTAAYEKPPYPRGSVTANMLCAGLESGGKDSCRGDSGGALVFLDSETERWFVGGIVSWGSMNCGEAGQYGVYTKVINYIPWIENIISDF
T1 sequence (O00187 298-444 partner limits assumed): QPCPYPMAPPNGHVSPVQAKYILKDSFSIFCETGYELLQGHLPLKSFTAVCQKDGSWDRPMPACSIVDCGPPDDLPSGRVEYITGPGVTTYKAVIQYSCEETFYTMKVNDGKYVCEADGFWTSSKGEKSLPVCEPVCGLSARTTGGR
Format: biochemical
Summary of the method: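 Fluorogenic substrate modelled on the C2 cleavage site, run at room temperature in 20 mM HEPES pH 7.4, 140 mM NaCl, 0.1% Tween 20; compounds were added from DMSO serial dilutions before enzyme and substrate. Reactions ran 20 min and were stopped with 0.1 M acetic acid before fluorescence was read. % activity was normalised to DMSO-only and no-enzyme controls; IC50 was taken as Ki, with tight- or slow-binding inhibitors handled separately.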
A Ki of over 10000 nM was found for Cc1nc(N)ccc1CNC(=O)Cn1c(=O)c(NS(=O)(=O)Cc2ccccc2)cn(C)c1=O [Compound 36, N-((6-Amino-2-Methylpyridin-3-yl)Methyl)-2-(3-Methyl-2,6-Dioxo-5-((Phenylmethyl)Sulfonamido)-3,6-Dihydropyrimidin-1(2H)-yl)Acetamide, Trifluoroacetate] in this work. A Ki of under 500 nM was found for Cc1ccccc1-c1cnc(NCCc2ccccc2)c(=O)n1CC(=O)NCc1cc2cnccc2[nH]1 [Compound 87, N-((1H-Pyrrolo[3,2-c]pyridin-2-yl)methyl)-2-(2-oxo-3-(phenethylamino)-6-(o-tolyl)pyrazin-1(2H)-yl)acetamide trifluoroacetate] in this work. A Ki of under 500 nM was found for O=C(Cn1c(-c2cccc(C(O)C(F)(F)F)c2)cnc(NCCc2ccccc2)c1=O)NCc1cc2cnccc2[nH]1 (stereo not shown) [Compound 97, N-((1H-Pyrrolo[3,2-c]pyridin-2-yl)methyl)-2-(2-oxo-3-(phenethylamino)-6-(3-(2,2,2-trifluoro-1-hydroxyethyl)phenyl)pyrazin-1(2H)-yl)acetamide] in this work. A Ki of under 500 nM was found for COc1ccc(CCNc2ncc(-c3ccccc3)n(CC(=O)NCc3cc4cnccc4[nH]3)c2=O)cc1 [Compound 142, N-((1H-Pyrrolo[3,2-c]pyridin-2-yl)methyl)-2-(3-((4-methoxyphenethyl)amino)-2-oxo-6-phenylpyrazin-1(2H)-yl)acetamide] in this work. A Ki of under 500 nM was found for O=C(Cn1c(-c2cccc(C3(O)CC3)c2)cnc(NCCc2ccccc2)c1=O)NCc1cc2cnccc2[nH]1 [Compound 98, N-((1H-Pyrrolo[3,2-c]pyridin-2-yl)methyl)-2-(6-(3-(1-hydroxycyclopropyl)phenyl)-2-oxo-3-(phenethylamino)pyrazin-1(2H)-yl)acetamide] in this work. A Ki of under 500 nM was found for C=C(C)c1cccc(-c2cnc(NCCc3ccccc3)c(=O)n2CC(=O)NCc2cc3cnccc3[nH]2)c1 [Compound 91, N-((1H-Pyrrolo[3,2-c]Pyridin-2-yl)Methyl)-2-(2-Oxo-3-(Phenethylamino)-6-(3-(Prop-1-en-2-yl)Phenyl)Pyrazin-1(2H)-yl)Acetamide] in this work. A Ki of under 500 nM was found for Cn1cc(-c2cnc(NCC3(c4ccc(Cl)cc4)CC3)c(=O)n2CC(=O)NCc2cc3cnccc3[nH]2)cn1 [Compound 65, N-((1H-Pyrrolo[3,2-c]Pyridin-2-yl)Methyl)-2-(3-(((1-(4-Chlorophenyl)Cyclopropyl)Methyl)Amino)-6-(1-Methyl-1H-Pyrazol-4-yl)-2-Oxopyrazin-1(2H)-yl)Acetamide Trifluoroacetate] in this work. A Ki of under 500 nM was found for COCCCCNc1ncc(-c2cnn(C)c2)n(CC(=O)NCc2cc3cnccc3[nH]2)c1=O [Compound 122, N-((1H-Pyrrolo[3,2-c]Pyridin-2-yl)Methyl)-2-(3-((4-Methoxybutyl)Amino)-6-(1-Methyl-1H-Pyrazol-4-yl)-2-Oxopyrazin-1(2H)-yl)Acetamide Trifluoroacetate] in this work. A Ki of under 500 nM was found for Cn1cc(NCCc2ccccc2)c(=O)n(CC(=O)NCc2cc3cnccc3[nH]2)c1=O [Compound 161, N-((1H-Pyrrolo[3,2-c]Pyridin-2-yl)Methyl)-2-(3-Methyl-2,6-Dioxo-5-(Phenethylamino)-3,6-Dihydropyrimidin-1(2H)-yl)Acetamide] in this work. A Ki of under 500 nM was found for Cc1cc2[nH]c(CNC(=O)Cn3c(-c4ccccc4)cnc(NC4(c5ccccc5)CC4)c3=O)cc2cn1 [Compound 76, N-((6-Methyl-1H-pyrrolo[3,2-c]pyridin-2-yl)methyl)-2-(2-oxo-6-phenyl-3-((1-phenylcyclopropyl)amino)pyrazin-1(2H)-yl)acetamide trifluoroacetate] in this work. A Ki of under 500 nM was found for O=C(Cn1c(-c2ccccc2)cnc(NC2(c3ccccc3)COC2)c1=O)NCc1cc2cnccc2[nH]1 [Compound 51, N-((1H-Pyrrolo[3,2-c]pyridin-2-yl)methyl)-2-(2-oxo-6-phenyl-3-((3-phenyloxetan-3-yl)amino)pyrazin-1(2H)-yl)acetamide trifluoroacetate] in this work. A Ki of under 500 nM was found for Nc1nc2ccc(CNC(=O)Cn3c(Br)cnc(NCCc4ccccc4)c3=O)cc2[nH]1 [Compound 8, N-((2-Amino-1H-Benzo[d]Imidazol-6-yl)Methyl)-2-(6-Bromo-2-Oxo-3-(Phenethylamino)Pyrazin-1(2H)-yl)Acetamide] in this work. A Ki of under 500 nM was found for Cc1nc(N)ccc1CNC(=O)Cn1c(-c2ccc(Cl)cc2)cnc(NCCc2ccccc2)c1=O [Compound 17, N-((6-Amino-2-Methylpyridin-3-yl)Methyl)-2-(6-(4-Chlorophenyl)-2-Oxo-3-(Phenethylamino)Pyrazin-1(2H)-yl) Acetamide, Trifluoroacetate] in this work. A Ki of under 500 nM was found for Cc1ccccc1CCNc1ncc(-c2ccccc2)n(CC(=O)NCc2cc3cnccc3[nH]2)c1=O [Compound 135, N-((1H-Pyrrolo[3,2-c]pyridin-2-yl)methyl)-2-(3-((2-methylphenethyl)amino)-2-oxo-6-phenylpyrazin-1(2H)-yl)acetamide] in this work. A Ki of under 500 nM was found for O=C(Cn1c(-c2ccccc2)cnc(NCCc2cccc(F)c2)c1=O)NCc1cc2cnccc2[nH]1 [Compound 145, N-((1H-Pyrrolo[3,2-c]pyridin-2-yl)methyl)-2-(3-((3-fluorophenethyl)amino)-2-oxo-6-phenylpyrazin-1(2H)-yl)acetamide] in this work. A Ki of under 500 nM was found for O=C(Cn1c(-c2ccccc2)cnc(N2CCC2)c1=O)NCc1cc2cnccc2[nH]1 [Compound 149, N-((1H-Pyrrolo[3,2-c]pyridin-2-yl)methyl)-2-(3-(azetidin-1-yl)-2-oxo-6-phenylpyrazin-1(2H)-yl)acetamide] in this work. A Ki of under 500 nM was found for Cn1cc(-c2cnc(NCCC(F)F)c(=O)n2CC(=O)NCc2cc3cnccc3[nH]2)cn1 [Compound 125, N-((1H-Pyrrolo[3,2-c]pyridin-2-yl)methyl)-2-(3-((3,3-difluoropropyl)amino)-6-(1-methyl-1H-pyrazol-4-yl)-2-oxopyrazin-1(2H)-yl)acetamide trifluoroacetate] in this work. A Ki of under 500 nM was found for O=C(Cn1c(-c2cc(F)ccc2F)cnc(NCCc2ccccc2)c1=O)NCc1cc2cnccc2[nH]1 [Compound 107, N-((1H-Pyrrolo[3,2-c]pyridin-2-yl)methyl)-2-(6-(2,5-difluorophenyl)-2-oxo-3-(phenethylamino)pyrazin-1(2H)-yl)acetamide] in this work. A Ki of 500 to 2500 nM was found for CNc1nc(Cl)c(-c2ccccc2)n(CC(=O)NCc2ccc(N)nc2C)c1=O [Compound 38] in this work. A Ki of under 500 nM was found for O=C(Cn1c(-c2ccc(F)cc2)cnc(NCCc2ccccc2)c1=O)NCc1cc2cnccc2[nH]1 [Compound 106, N-((1H-Pyrrolo[3,2-c]pyridin-2-yl)methyl)-2-(6-(4-fluorophenyl)-2-oxo-3-(phenethylamino)pyrazin-1(2H)-yl)acetamide] in this work. A Ki of under 500 nM was found for O=C(Cn1c(-c2ccccc2)cnc(NCc2cccc(F)c2)c1=O)NCc1cc2cnccc2[nH]1 [Compound 151, N-((1H-Pyrrolo[3,2-c]pyridin-2-yl)methyl)-2-(3-((3-fluorobenzyl)amino)-2-oxo-6-phenylpyrazin-1(2H)-yl)acetamide] in this work. A Ki of under 500 nM was found for O=C(O)Cc1cccc(-c2cnc(NCCc3ccccc3)c(=O)n2CC(=O)NCc2cc3cnccc3[nH]2)c1 [Compound 94, 2-(3-(1-(2-(((1H-Pyrrolo[3,2-c]Pyridin-2-yl)Methyl) Amino)-2-Oxoethyl)-6-Oxo-5-(Phenethylamino)-1,6-Dihydropyrazin-2-yl)Phenyl)Acetic Acid Trifluoroacetate] in this work. A Ki of under 500 nM was found for O=C(Cn1c(-c2ccccc2)cnc(NCC2(c3ccc(C(F)(F)F)cc3)CC2)c1=O)NCc1cc2cnccc2[nH]1 [Compound 60, N-((1H-Pyrrolo[3,2-c]pyridin-2-yl)methyl)-2-(2-oxo-6-phenyl-3-(((1-(4-(trifluoromethyl)phenyl)cyclopropyl)methyl)amino)pyrazin-1(2H)-yl)acetamide trifluoroacetate] in this work. A Ki of under 500 nM was found for O=C(Cn1c(-c2ccccc2)cnc(NCC(F)(F)c2ccccc2)c1=O)NCc1cc2cnccc2[nH]1 [Compound 128, N-((1H-Pyrrolo[3,2-c]pyridin-2-yl)methyl)-2-(3-((2,2-difluoro-2-phenylethyl)amino)-2-oxo-6-phenylpyrazin-1(2H)-yl)acetamide trifluoroacetate] in this work. A Ki of under 500 nM was found for CC(O)c1cccc(-c2cnc(NCCc3ccccc3)c(=O)n2CC(=O)NCc2cc3cnccc3[nH]2)c1 (stereo not shown) [Compound 100, N-((1H-Pyrrolo[3,2-c]Pyridin-2-yl)Methyl)-2-(6-(3-(1-Hydroxyethyl)Phenyl)-2-Oxo-3-(Phenethylamino)Pyrazin-1(2H)-yl)Acetamide] in this work. A Ki of 500 to 2500 nM was found for Cn1cc(-c2cnc(NCCc3ccccc3)c(=O)n2CC(=O)NCc2cc3cnccc3o2)cn1 [Compound 132] in this work. A Ki of under 500 nM was found for CC(C)(O)c1cccc(-c2cnc(NCCc3ccccc3)c(=O)n2CC(=O)NCc2cc3cnccc3[nH]2)c1 [Compound 92, N-((1H-Pyrrolo[3,2-c]pyridin-2-yl)methyl)-2-(6-(3-(2-hydroxypropan-2-yl)phenyl)-2-oxo-3-(phenethylamino)pyrazin-1(2H)-yl)acetamide] in this work. A Ki of under 500 nM was found for O=C(Cn1c(-c2ccccc2)cnc(NCCc2ccccc2F)c1=O)NCc1cc2cnccc2[nH]1 [Compound 144, N-((1H-Pyrrolo[3,2-c]pyridin-2-yl)methyl)-2-(3-((2-fluorophenethyl)amino)-2-oxo-6-phenylpyrazin-1(2H)-yl)acetamide] in this work. A Ki of under 500 nM was found for Cc1nc(N)ccc1CNC(=O)Cn1c(-c2cccc3cnccc23)cnc(NCCc2ccccc2)c1=O [Compound 24, N-((6-Amino-2-methylpyridin-3-yl)methyl)-2-(6-(isoquinolin-5-yl)-2-oxo-3-(phenethylamino)pyrazin-1(2H)-yl)acetamide] in this work. A Ki of under 500 nM was found for O=C(Cn1c(-c2ccccc2)cnc(NCCc2ccc(F)cc2)c1=O)NCc1cc2cnccc2[nH]1 [Compound 146, N-((1H-Pyrrolo[3,2-c]pyridin-2-yl)methyl)-2-(3-((4-fluorophenethyl)amino)-2-oxo-6-phenylpyrazin-1(2H)-yl)acetamide] in this work. A Ki of under 500 nM was found for Nc1nc2ccc(CNC(=O)Cn3c(-c4cccc(C(=O)O)c4)cnc(NCCc4ccccc4)c3=O)cc2[nH]1 [Compound 16] in this work.
